From US8003663B2, “Pyrazolo[3,4-b]pyridine compounds, and their use as PDE4 inhibitors” (Glaxo Group Limited, priority 2006, dated 2011)
“Also recorded” adds a separate entry of the source. Structures can show the parent of a compound that is named as a salt.

Tests used:
[1] = cited from earlier work
[2] = tested on: LPS-induced pulmonary neutrophilia in rats; assay: In Vivo Assay 1: LPS induced pulmonary neutrophilia in rats, intratracheally administered PDE4 inhibitors; set-up: species or system rat; settings: for percentage mean inhibition of LPS-induced pulmonary neutrophilia / arithmetic mean percentage inhibition of LPS-induced pulmonary neutrophilia: rat, about 2 hours prior to LPS; for percentage mean inhibition of LPS-induced pulmonary neutrophilia: i.t. aqueous solution; for arithmetic mean percentage inhibition of LPS-induced pulmonary neutrophilia: i.t. dry powder blended in lactose; for duration of action: preliminary tests
Excerpt: This assay is an animal model of acute inflammation in the lung—specifically neutrophilia induced by lipopolysaccharide (LPS)—and allows the study of putative inhibition of such neutrophilia (anti-inflammatory effect) by an intratracheally (i.t.) administered PDE4 inhibitor (“drug”). The PDE4 inhibitors are suitably in dry powder, aqueous solution or aqueous suspension form. I.t. administration is one model of inhaled administration, allowing topical delivery to the lung.
Animals: Male CD (Sprague Dawley Derived) rats supplied by Charles River, United Kingdom are housed in groups of 5 rats per cage, acclimatised after delivery for at least 7 days with bedding/nesting material regularly changed, fed on SDS diet R1 pelleted food given ad lib, and supplied with daily-changed pasteurised animal grade drinking water.
Device for dry powder administration: For these studies, a Penn Century DP-4 dry powder intratracheal (i.t.) delivery device (insufflator) is used for administration of a dry powder blend of vehicle (inhalation grade lactose) and the PDE4 inhibitor compound or salt of the invention (“drug”). Each device is numbered and the sample loading chamber is unscrewed from the main device and weighed. The i.t. delivery needle is also weighed. The drug+lactose blend or inhalation grade lactose (vehicle control) is then added to the sample chamber and this is then re-weighed. The sample chamber is fitted back on to the main device to prevent any drug being lost. This procedure is repeated for all of the Penn century devices to be used in the study (one separate device for each animal). After dosing to the animals, the sample chambers and needles are re-weighed in order to determine the amount of sample that was expelled from the device.
Device for aqueous solution administration: A blunt dosing needle, whose forward end is slightly angled to the needle axis, is used, with a flexible plastic portex canula inserted into the needle. The portex cannula is inserted into the lumen of the blunt stainless steel dosing needle and this is carefully inserted into the back of the animal's throat and into the trachea via the larynx. A known volume (200 microliters) of the vehicle (0.2% Tween 80™ in saline) or of the solution (or suspension) drug composition is administered into the trachea using a plastic syringe that is attached to the portex cannula and dosing needle. A new internal cannula is used for each different drug group. After dosing, the needle is removed from the trachea and the animals are removed from the table and continually observed until they recover from the effects of anaesthesia. The animals are then returned to the holding cages and given free access to food and water, and are observed and any unusual behavioural changes noted. (Aqueous suspensions can be handled generally similarly.)
Drugs and Materials: Lipopolysaccharide (LPS) (Serotype:0127:B8, e.g. from Sigma, UK; e.g. L3129 prepared by phenol extraction) is dissolved in phosphate-buffered saline (PBS).
For dry powder, aqueous solution or aqueous suspension administration, PDE4 inhibitors are preferably used in size-reduced (e.g. micronised) form, for example according to the Micronisation Example(s) disclosed herein.
For dry powder administration of the drug, the PDE4 inhibitor compound or salt of the invention (drug) is administered as a dry powder blended with inhalation-grade (respiratory-grade) lactose, i.e. as a dry powder composition. The target quantity of dry powder composition administered i.t. to each animal is 2 mg. This remains constant throughout the studies. To achieve different doses, blends of the drug dry powder and lactose, containing different concentrations of the PDE4 inhibitor compound or salt of the invention (drug), are prepared. […]

[3] = tested on: LPS-induced nasal neutrophilia in rats; assay: In vivo assay 2: LPS induced nasal neutrophilia in rats, intranasally administered PDE4 inhibitors; settings: rat, i.n. aqueous solution, about 30 minutes prior to LPS
Excerpt: This assay is an animal model of acute inflammation in the nose—specifically neutrophilia induced by lipopolysaccharide (LPS)—and allows the study of putative inhibition of such neutrophilia (anti-inflammatory effect) by an intranasally (i.n.) administered PDE4 inhibitor (“drug”). The PDE4 inhibitor is preferably in the form of an aqueous suspension or aqueous solution. Bolus, i.n. administration allows topical delivery to the nose.
Animals: Male CD rats (Sprague Dawley derived), weighing between 300-350 g are supplied by Charles River, UK and transported to the test site. On arrival at the test site, the animals are housed in groups of 4 or 5 per cage and complete a minimum acclimatisation period of 7 days. The animals are housed in solid bottomed cages using grade 8 sawdust. The bedding and nesting materials are changed 3 times per week. Diet comprises SDS diet R1 pelleted food given ad lib. Pasteurised animal grade drinking water is supplied and changed daily.
Lipopolysaccharide (Serotype: 0127:B8, e.g. available from Sigma, UK; e.g. L3129 prepared by phenol extraction) is used for all studies and is dissolved in phosphate-buffered saline (PBS).
Tween 80™ (e.g. available from Sigma e.g. 023K 01575). A mixture of 0.2% Tween 80™ in phosphate buffered saline (PBS) is prepared as vehicle for solution compositions. The Sigma catalogue 2004-2005 and The Handbook of Pharmaceutical Excipients (HPE) 4th edition 2003 pp. 479-483 define Tween 80™ as a brand of polysorbate 80 (according to HPE, polysorbate 80 is also named polyoxyethylene 20 sorbitan monooleate, i.e. having been copolymerised with about 20 moles of ethylene oxide for each mole of sorbitol and/or sorbitol anhydrides used).
The PDE4 inhibitor compound or salt of the invention (“drug”) is preferably used in size-reduced (e.g. micronised) form, for example according to the Micronisation Example(s) disclosed herein.
A solution of compound (0.7 mg/ml) is generally prepared by adding 0.2% Tween 80™ in phosphate buffered saline (PBS) to a pre-weighed micronised sample of the drug. The solution composition is sonicated, e.g. for approximately 2 min, and is observed to be a solution (if it is a solution) by visual assessment. A fixed volume of 50 microliters (25 microliters into each nostril) of either the drug-containing solution composition or a saline/Tween 80™ vehicle is administered to all animals. Each animal weighs, on average, 350 g. To achieve a dose of 100 μg/kg (100 ug/kg), each animal receives a total of 35 μg (35 ug) of the drug. The dose volume is 50 microliters (25 microliters to each nostril), and therefore a concentration of 35 μg (ug) per 50 microliters (0.7 mg/ml) is prepared. To achieve lower dose concentrations, serial dilutions are prepared in saline/Tween 80™. […]

[4] = cited from earlier work; remark: listed apart in the source
[5] = orally 500 ug once daily for 9 days; daily intranasal allergen provocation (pollen extracts); cited from earlier work

Question: With `COc1ccc(C2CNC(=O)NC2)cc1O[C@H]1C[C@@H]2CC[C@H]1C2` [CP80,633] as the compound, how does the “inflammatory parameters in atopic dermatitis patients” value ([1]; 0.5% ointment, twice daily topical application) read?
Answer: Its value is “reductions of inflammatory parameters”.

Question: Which “percentage mean inhibition of LPS-induced pulmonary neutrophilia” value (from here on “percentage mean inhibition”) ([2]; about 10 micrograms/kg, dihydrochloride) does the source give for `CCc1nc2c(cnn2CC)c(NC2CCOCC2)c1CNC(=O)c1ccc(NC(=O)CCCCCCCN(C)CCO)cc1` [Example 1A1, N-{[1,6-Diethyl-4-(tetrahydro-2H-pyran-4-ylamino)-1H-pyrazolo[3,4-b]pyridin-5-yl]methyl}-4-({8-[(2-hydroxyethyl)(methyl)amino]octanoyl}amino)benzamide dihydrochloride] here?
Answer: Its value is “about 33%”.

Question: And the “percentage mean inhibition” value ([2]; about 30 micrograms/kg, dihydrochloride)?
Answer: Its value is “about 56%”.

Question: What about the “percentage mean inhibition” value ([2]; about 100 micrograms/kg, dihydrochloride) of the same compound?
Answer: The value was “about 76%”.

Question: And the “percentage mean inhibition” value ([2]; about 300 micrograms/kg)?
Answer: Its value is “about 74%”.

Question: With `CCc1nc2c(cnn2CC)c(NC2CCOCC2)c1CNC(=O)c1ccc(NC(=O)CCCCCCCN(C)CCO)cc1` [Example 1A2, N-{[1,6-diethyl-4-(tetrahydro-2H-pyran-4-ylamino)-1H-pyrazolo[3,4-b]pyridin-5-yl]methyl}-4-({8-[(2-hydroxyethyl)(methyl)amino]octanoyl}amino)benzamide monohydrochloride] as the compound, how does the “percentage inhibition (arithmetic mean) of LPS-induced nasal neutrophilia” value (“percentage inhibition (arithmetic mean)” below) ([3]; about 1 micrograms/kg) read?
Answer: Its value is “essentially no inhibition”.

Question: What about the “percentage inhibition (arithmetic mean)” value ([3]; about 3 micrograms/kg) of the same compound?
Answer: Its value is “small and non-statistically-significant inhibition”.

Question: What about the “percentage inhibition (arithmetic mean)” value ([3]; about 10 micrograms/kg) of the same compound?
Answer: The value was “about 62%”.

Question: What about the “percentage inhibition (arithmetic mean)” value ([3]; about 100 micrograms/kg) of the same compound?
Answer: Its value is “about 79%”.

Question: And the “arithmetic mean percentage inhibition of LPS-induced pulmonary neutrophilia” value (“arithmetic mean percentage inhibition” below) ([2]; about 10 micrograms/kg)?
Answer: Its value is “about 29%”.

Question: What about the “arithmetic mean percentage inhibition” value ([2]; about 30 micrograms/kg) of the same compound?
Answer: Its value is “about 44%”.

Question: What about the “arithmetic mean percentage inhibition” value ([2]; about 100 micrograms/kg) of the same compound?
Answer: Its value is “about 39%”.

Question: And the “arithmetic mean percentage inhibition” value ([2]; about 300 micrograms/kg)?
Answer: The value was “about 55%”.

Question: What does the source list for `CCc1nc2c(cnn2CC)c(NC2CCOCC2)c1CNC(=O)c1ccc(NC(=O)CCCCCCCN(C)CCO)cc1` [Example 1B, N-{[1,6-diethyl-4-(tetrahydro-2H-pyran-4-ylamino)-1H-pyrazolo[3,4-b]pyridin-5-yl]methyl}-4-({8-[(2-hydroxyethyl)(methyl)amino]octanoyl}amino)benzamide]?
Answer: percentage mean inhibition of LPS-induced pulmonary neutrophilia ([2]; about 10 micrograms/kg): about 29%; percentage mean inhibition of LPS-induced pulmonary neutrophilia ([2]; about 30 micrograms/kg): about 75%; percentage mean inhibition of LPS-induced pulmonary neutrophilia ([2]; about 100 micrograms/kg): about 59%

Question: Which results are given for `CCc1nc2c(cnn2CC)c(NC2CCOCC2)c1CNC(=O)c1ccc(NC(=O)CCCCCCCN(C)CCO)cc1` [N-{[1,6-diethyl-4-(tetrahydro-2H-pyran-4-ylamino)-1H-pyrazolo[3,4-b]pyridin-5-yl]methyl}-4-({8-[(2-hydroxyethyl)(methyl)amino]octanoyl}amino)benzamide]?
Answer: duration of action ([2]; after i.t. administration to the rat as a dry powder): 4 h; duration of action ([2]; after i.t. administration to the rat as an aqueous solution): ≥ 2 h

Question: What does the source list for `COc1ccc([C@]2(C#N)CC[C@@H](C(=O)O)CC2)cc1OC1CCCC1` [cilomilast]?
Answer: forced expiratory volume in 1s (FEV1) in COPD patients ([4]; 15 mg orally twice daily): appears to improve forced expiratory volume in 1s (FEV1); antiinflammatory effects in COPD patients ([4]; human, in vivo): appears to have anti-inflammatory effects; also recorded: appears to have antiinflammatory effects

Question: With `Nc1nc2c([nH]1)c(=O)n(CC1CC1)c(=O)n2CC1CC1` [cipamfylline] as the compound, how does the “effectiveness in the treatment of atopic dermatitis patients” value ([1]; 0.15% cream versus vehicle and hydrocortisone 17-butyrate (0.1%) cream) read?
Answer: Its value is “significantly more effective than vehicle, but significantly less effective than hydrocortisone 17-butyrate (0.1%) cream”.

Question: With `O=C(Nc1c(Cl)cncc1Cl)c1ccc(OC(F)F)c(OCC2CC2)c1` [roflumilast] as the compound, how does the “FEV1 in COPD patients” value ([4]; human, in vivo) read?
Answer: The value was “appears to show small improvements in FEV1”.

Question: What about the “rhinal airflow during the treatment period (compared to placebo)” value [5] of the same compound?
Answer: The value was “effective in improving rhinal airflow”.
